Measured values: patent US20260022142A1, “MACROCYCLIC IMMUNOMODULATORS” (Bristol-Myers Squibb Company, priority 2022, published 2026)
Bridge positions count the residues as written; N and C are the ends. Square brackets hold non-standard residues; d marks the D form. Peptide text beside a SMILES is read from it. * marks the point of attachment. Phe(4-CONH2) = NC(=O)c1ccc(C[C@H](N)C(=O)O)cc1; Bip = N[C@@H](Cc1ccc(-c2ccccc2)cc1)C(=O)O; Phe(3-OMe) = COc1cccc(C[C@H](N)C(=O)O)c1; Phe(3-F) = N[C@@H](Cc1cccc(F)c1)C(=O)O; Phe(3-Me) = Cc1cccc(C[C@H](N)C(=O)O)c1; Phe(4-Me) = Cc1ccc(C[C@H](N)C(=O)O)cc1; Phe(2-Me) = Cc1ccccc1C[C@H](N)C(=O)O; Val(3-OH) = CC(C)(O)[C@H](N)C(=O)O; 4Pal = N[C@@H](Cc1ccncc1)C(=O)O; 2Thi = N[C@@H](Cc1cccs1)C(=O)O; Cha = N[C@@H](CC1CCCCC1)C(=O)O; Gly(cPr) = N[C@H](C(=O)O)C1CC1; Phg = N[C@H](C(=O)O)c1ccccc1; Carboxymethyl = O=C(O)C*; Orn = NCCC[C@H](N)C(=O)O; Aun = NCCCCCCCCCCC(=O)O; Dab = NCC[C@H](N)C(=O)O

These compounds were tested against T1, PD-1/PD-L1 interaction (PE-labeled human PD-L1-Ig binding to Jurkat cell line over-expressing human PD-1) (Homo sapiens, UniProt Q15116) (assay: Jurkat-PD-1 Cell Binding High-Content Screening Assay (CBA)). Conditions: Jurkat cell line over-expressing human PD-1; PE-labeled PD-L1-Ig 20 nM final; read-out: Jurkat hPD1-PDL1 IC50.
T1 construct: expressed in transfected cells; host or cells: Jurkat
T1 sequence (Q15116 25-288): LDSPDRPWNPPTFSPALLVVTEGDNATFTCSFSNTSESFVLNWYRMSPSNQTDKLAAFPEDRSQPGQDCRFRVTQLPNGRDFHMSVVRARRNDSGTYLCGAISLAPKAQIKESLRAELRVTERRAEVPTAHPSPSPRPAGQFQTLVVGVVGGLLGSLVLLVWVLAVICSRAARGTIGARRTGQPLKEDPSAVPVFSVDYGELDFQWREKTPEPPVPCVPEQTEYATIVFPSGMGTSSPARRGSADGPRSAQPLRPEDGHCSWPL
Assay type: cell-based
Method in brief: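 Read-out is high-content imaging of cell-bound phycoerythrin-tagged PD-L1-Ig on fixed, Hoechst-counterstained Jurkat cells that over-express human PD-1. Compound exposure lasts 2 h at 37° C before the labeled ligand (20 nM final) is added for a further hour.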
An IC50 of 0.014 µM was found for COc1cccc(C[C@@H]2NC(=O)[C@H](Cc3cccc(C)c3)NC(=O)[C@H](CC(=O)O)NC(=O)[C@H](Cc3ccc(OCC(=O)O)cc3)NC(=O)[C@H](Cc3ccncc3)NC(=O)CSC[C@@H](C(=O)N[C@@H](CCN)C(=O)NCCCCCCCCCCC(=O)O)NC(=O)[C@H](CO)NC(=O)[C@H](C(C)(C)O)NC(=O)[C@H](CC3CCCCC3)NC(=O)[C@H](CCN)NC(=O)[C@@H](CC(C)C)NC(=O)[C@H](CCCN)NC(=O)[C@H](Cc3ccc(OCC(=O)O)cc3)NC(=O)[C@H](Cc3ccc(-c4ccccc4)cc3)NC2=O)c1 [Compound 2186] ({CH2CO}-[4Pal]Y(Carboxymethyl)D[Phe(3-Me)][Phe(3-OMe)][Bip]Y(Carboxymethyl)[Orn][dL][Dab][Cha][Val(3-OH)]SC[Dab][Aun]-OH; thioether N-14) in this work. An IC50 of 0.0313 µM was found for Cc1cccc(C[C@@H]2NC(=O)[C@H](CC(=O)O)NC(=O)[C@H](Cc3ccc(OCC(=O)O)cc3)NC(=O)[C@H](Cc3ccncc3)NC(=O)CSC[C@@H](C(=O)N[C@@H](CCN)C(=O)NCCCCCCCCCCC(=O)O)NC(=O)[C@H](CO)NC(=O)[C@H](C(C)(C)O)NC(=O)[C@H](CC3CCCCC3)NC(=O)[C@H](CCN)NC(=O)[C@@H](CC(C)C)NC(=O)[C@H](CCCN)NC(=O)[C@H](Cc3ccc(OCC(=O)O)cc3)NC(=O)[C@H](Cc3ccc(-c4ccccc4)cc3)NC(=O)[C@H](C(C)(C)O)NC2=O)c1 [Compound 2187] ({CH2CO}-[4Pal]Y(Carboxymethyl)D[Phe(3-Me)][Val(3-OH)][Bip]Y(Carboxymethyl)[Orn][dL][Dab][Cha][Val(3-OH)]SC[Dab][Aun]-OH; thioether N-14) in this work. An IC50 of 0.0094 µM was found for Cc1cccc(C[C@@H]2NC(=O)[C@H](CC(=O)O)NC(=O)[C@H](Cc3ccc(OCC(=O)O)cc3)NC(=O)[C@H](Cc3ccncc3)NC(=O)CSC[C@@H](C(=O)N[C@@H](CCN)C(=O)NCCCCCCCCCCC(=O)O)NC(=O)[C@H](CO)NC(=O)[C@H](C(C)(C)O)NC(=O)[C@H](CC3CCCCC3)NC(=O)[C@H](CCN)NC(=O)[C@@H](CC(C)C)NC(=O)[C@H](CCCN)NC(=O)[C@H](Cc3ccc(OCC(=O)O)cc3)NC(=O)[C@H](Cc3ccc(-c4ccccc4)cc3)NC(=O)[C@H](Cc3cccs3)NC2=O)c1 [Compound 2188] ({CH2CO}-[4Pal]Y(Carboxymethyl)D[Phe(3-Me)][2Thi][Bip]Y(Carboxymethyl)[Orn][dL][Dab][Cha][Val(3-OH)]SC[Dab][Aun]-OH; thioether N-14) in this work. An IC50 of 0.0182 µM was found for Cc1cccc(C[C@@H]2NC(=O)[C@H](CC(=O)O)NC(=O)[C@H](Cc3ccc(OCC(=O)O)cc3)NC(=O)[C@H](Cc3ccncc3)NC(=O)CSC[C@@H](C(=O)N[C@@H](CCN)C(=O)NCCCCCCCCCCC(=O)O)NC(=O)[C@H](CO)NC(=O)[C@H](C(C)(C)O)NC(=O)[C@H](CC3CCCCC3)NC(=O)[C@H](CCN)NC(=O)[C@@H](CC(C)C)NC(=O)[C@H](CCCN)NC(=O)[C@H](Cc3ccc(OCC(=O)O)cc3)NC(=O)[C@H](Cc3ccc(-c4ccccc4)cc3)NC(=O)[C@H](C3CC3)NC2=O)c1 [Compound 2189] ({CH2CO}-[4Pal]Y(Carboxymethyl)D[Phe(3-Me)][Gly(cPr)][Bip]Y(Carboxymethyl)[Orn][dL][Dab][Cha][Val(3-OH)]SC[Dab][Aun]-OH; thioether N-14) in this work. An IC50 of 0.0196 µM was found for Cc1ccc(C[C@@H]2NC(=O)[C@H](Cc3cccc(C)c3)NC(=O)[C@H](CC(=O)O)NC(=O)[C@H](Cc3ccc(OCC(=O)O)cc3)NC(=O)[C@H](Cc3ccncc3)NC(=O)CSC[C@@H](C(=O)N[C@@H](CCN)C(=O)NCCCCCCCCCCC(=O)O)NC(=O)[C@H](CO)NC(=O)[C@H](C(C)(C)O)NC(=O)[C@H](CC3CCCCC3)NC(=O)[C@H](CCN)NC(=O)[C@@H](CC(C)C)NC(=O)[C@H](CCCN)NC(=O)[C@H](Cc3ccc(OCC(=O)O)cc3)NC(=O)[C@H](Cc3ccc(-c4ccccc4)cc3)NC2=O)cc1 [Compound 2190] ({CH2CO}-[4Pal]Y(Carboxymethyl)D[Phe(3-Me)][Phe(4-Me)][Bip]Y(Carboxymethyl)[Orn][dL][Dab][Cha][Val(3-OH)]SC[Dab][Aun]-OH; thioether N-14) in this work. An IC50 of 0.02 µM was found for Cc1cccc(C[C@@H]2NC(=O)[C@H](CC(=O)O)NC(=O)[C@H](Cc3ccc(OCC(=O)O)cc3)NC(=O)[C@H](Cc3ccncc3)NC(=O)CSC[C@@H](C(=O)N[C@@H](CCN)C(=O)NCCCCCCCCCCC(=O)O)NC(=O)[C@H](CO)NC(=O)[C@H](C(C)(C)O)NC(=O)[C@H](CC3CCCCC3)NC(=O)[C@H](CCN)NC(=O)[C@@H](CC(C)C)NC(=O)[C@H](CCCN)NC(=O)[C@H](Cc3ccc(OCC(=O)O)cc3)NC(=O)[C@H](Cc3ccc(-c4ccccc4)cc3)NC(=O)[C@H](c3ccccc3)NC2=O)c1 [Compound 2191] ({CH2CO}-[4Pal]Y(Carboxymethyl)D[Phe(3-Me)][Phg][Bip]Y(Carboxymethyl)[Orn][dL][Dab][Cha][Val(3-OH)]SC[Dab][Aun]-OH; thioether N-14) in this work. An IC50 of 0.0077 µM was found for Cc1cccc(C[C@@H]2NC(=O)[C@H](CC(=O)O)NC(=O)[C@H](Cc3ccc(OCC(=O)O)cc3)NC(=O)[C@H](Cc3ccncc3)NC(=O)CSC[C@@H](C(=O)N[C@@H](CCN)C(=O)NCCCCCCCCCCC(=O)O)NC(=O)[C@H](CO)NC(=O)[C@H](C(C)(C)O)NC(=O)[C@H](CC3CCCCC3)NC(=O)[C@H](CCN)NC(=O)[C@@H](CC(C)C)NC(=O)[C@H](CCCN)NC(=O)[C@H](Cc3ccc(OCC(=O)O)cc3)NC(=O)[C@H](Cc3ccc(-c4ccccc4)cc3)NC(=O)[C@H](Cc3ccc(C(N)=O)cc3)NC2=O)c1 [Compound 2192] ({CH2CO}-[4Pal]Y(Carboxymethyl)D[Phe(3-Me)][Phe(4-CONH2)][Bip]Y(Carboxymethyl)[Orn][dL][Dab][Cha][Val(3-OH)]SC[Dab][Aun]-OH; thioether N-14) in this work. An IC50 of 0.0217 µM was found for Cc1cccc(C[C@@H]2NC(=O)[C@H](CC(=O)O)NC(=O)[C@H](Cc3ccc(OCC(=O)O)cc3)NC(=O)[C@H](Cc3ccncc3)NC(=O)CSC[C@@H](C(=O)N[C@@H](CCN)C(=O)NCCCCCCCCCCC(=O)O)NC(=O)[C@H](CO)NC(=O)[C@H](C(C)(C)O)NC(=O)[C@H](CC3CCCCC3)NC(=O)[C@H](CCN)NC(=O)[C@@H](CC(C)C)NC(=O)[C@H](CCCN)NC(=O)[C@H](Cc3ccc(OCC(=O)O)cc3)NC(=O)[C@H](Cc3ccc(-c4ccccc4)cc3)NC(=O)[C@H](Cc3ccccc3C)NC2=O)c1 [Compound 2193] ({CH2CO}-[4Pal]Y(Carboxymethyl)D[Phe(3-Me)][Phe(2-Me)][Bip]Y(Carboxymethyl)[Orn][dL][Dab][Cha][Val(3-OH)]SC[Dab][Aun]-OH; thioether N-14) in this work. An IC50 of 0.0129 µM was found for Cc1cccc(C[C@@H]2NC(=O)[C@H](CC(=O)O)NC(=O)[C@H](Cc3ccc(OCC(=O)O)cc3)NC(=O)[C@H](Cc3ccncc3)NC(=O)CSC[C@@H](C(=O)N[C@@H](CCN)C(=O)NCCCCCCCCCCC(=O)O)NC(=O)[C@H](CO)NC(=O)[C@H](C(C)(C)O)NC(=O)[C@H](CC3CCCCC3)NC(=O)[C@H](CCN)NC(=O)[C@@H](CC(C)C)NC(=O)[C@H](CCCN)NC(=O)[C@H](Cc3ccc(OCC(=O)O)cc3)NC(=O)[C@H](Cc3ccc(-c4ccccc4)cc3)NC(=O)[C@H](Cc3cccc(F)c3)NC2=O)c1 [Compound 2194] ({CH2CO}-[4Pal]Y(Carboxymethyl)D[Phe(3-Me)][Phe(3-F)][Bip]Y(Carboxymethyl)[Orn][dL][Dab][Cha][Val(3-OH)]SC[Dab][Aun]-OH; thioether N-14) in this work.
